Laboratory results from article PMC11679033, “Assessing the Potential Synergistic/Antagonistic Effects of Citrinin and Cannabidiol on SH-SY5Y, HepG2, HEK293 Cell Lines, and Human Lymphocytes” (Toxins, 2024).
Marks after values point to notes of the source that are not given here.

How the values were obtained:
[1] = tested on: human peripheral blood lymphocytes; test: Cytokinesis-Block Micronucleus Cytome (CBMN Cyt) Assay; conditions: 24 h, citrinin 30 µM, CBD 1 µM, bleomycin 1.25 µg/mL; for Distribution of BNMN Cells with 1 MN / Distribution of BNMN Cells with 2 MNi / Distribution of BNMN Cells with 3 MNi / Distribution of BNNB Cells with 1 NB / Distribution of BNNB Cells with 2 NBs / Micronuclei (MNi) and BNMN Cells: Total (BNNB)6000 / Micronuclei (MNi) and BNMN Cells: Total (MNi)6000 / Nuclear Buds (NBs) and BNNB Cells: Total (BNNB)6000 / Nuclear Buds (NBs) and BNNB Cells: Total (NBs)6000 / Nucleoplasmic Bridges (NPBs) and BNNPB Cells: Total (BNNPB)6000 / Nucleoplasmic Bridges (NPBs) and BNNPB Cells: Total (NPBs)6000: in 6000 BN cells; for Cell Death: Total (Apoptosis)6000 / Cell Death: Total (Necrosis)6000: in 6000 cells; for Micronuclei (MNi) and BNMN Cells: Mean (BNMN)1000 ± SD / Micronuclei (MNi) and BNMN Cells: Mean (MNi)1000 ± SD / Nuclear Buds (NBs) and BNNB Cells: Mean (BNNB)1000 ± SD / Nuclear Buds (NBs) and BNNB Cells: Mean (NBs)1000 ± SD / Nucleoplasmic Bridges (NPBs) and BNNPB Cells: Mean (BNNPB)1000 ± SD / Nucleoplasmic Bridges (NPBs) and BNNPB Cells: Mean (NPBs)1000 ± SD: per 1000 BN cells; for Cell Death: Mean (Apoptosis)1000 ± SD / Cell Death: Mean (Necrosis)1000 ± SD: per 1000 cells
Protocol: (§1) The experimental design included the establishment of lymphocyte cultures, and the 24 h treatments with the test compounds, performed according to the last OECD recommendations, given in the Test Guideline No. 487—In Vitro Mammalian Cell Micronucleus Test.
(§2) The selection of specific concentrations of test compounds adhered to the guidelines for in vitro genotoxicity testing using comet assay. […] Solutions used in testing were prepared just prior to treatment by dissolving the test compounds in ethanol (Kemika, Zagreb, Croatia).
(§3) Two independent trials, with six experimental groups each, were conducted. A total of six replicate cultures for every single experimental group were established. This step was carried out as follows: aliquots of heparinized blood (V = 600 μL per culture) were pipetted into a growth medium RPMI-1640 (Gibco, Grand Island, NY, USA) supplemented with 10% fetal calf serum (Gibco, Grand Island, NY, USA) and antibiotics (penicillin and streptomycin; Sigma-Aldrich, Steinheim, Germany). Lymphocytes were stimulated with a mitogen phytohemagglutinin (Remel, Lenexa, KS, USA) in order to induce cell division prior to exposure to the test chemicals. Cultures were maintained in the humidified atmosphere of 5% CO2 at 37 °C (Heraeus Hera Cell 240 incubator; Langenselbold, Germany).
(§4) Negative controls (NCs) were non-treated lymphocytes. Solvent controls (SCs) were lymphocytes treated with ethanol (its final concentration in the culture corresponded to 0.03%). Positive controls (PCs) were lymphocytes treated for 24 h with bleomycin at 1.25 µg/mL (according to [69]). The other three groups were lymphocytes exposed to single CIT, single CBD, and their combination (CIT + CBD, at the same concentrations).
(§5) Treatments with test compounds started 20 h after the initial establishment of the cell cultures and lasted for 24 h. Upon completion of the exposure, aliquots of 100 µL of the treated cultures were pipetted in sterile conditions and used to prepare microgels for the alkaline comet assay. The remaining content of flasks was further processed using Cytokinesis-Block Micronucleus Cytome (CBMN Cyt) Assay.
CBMN Cyt Assay was performed according to standard protocols proposed for micronucleus assay. Upon completion of the exposure, lymphocyte cultures were subjected to centrifugation at 100× g using a benchtop centrifuge (ROTOFIX 32A, Hettich, Tuttlingen, Germany). During this process, cells settled to the bottom of the tube. The growth medium with tested compounds was removed by pipetting, discarded and replaced with a fresh amount of complete growth medium RPMI-1640 that contained Cytochalasin B (cytoB; Sigma-Aldrich, Steinheim, Germany) at a final concentration of 6 µg/mL. This procedure was timed to the 44th hour of lymphocyte cultivation, as that time is a critical point for the addition of cytoB to inhibit cytokinesis and obtain binucleated cells. All treated and control cultures were further maintained in the previously described conditions at 37 °C until the end of the 72nd hour of cultivation, as proposed by protocols. Then, the preparation of microscopic slides started, which included harvesting of cells by centrifugation (100× g, ROTOFIX 32A centrifuge, Hettich, Tuttlingen, Germany), followed by hypotonic treatment (0.075 mol/L KCl; Kemika, Zagreb, Croatia), and a new round of centrifugation. The resulting sediments of cells were fixed in several repeating stages with methanol–acetic acid (3:1 v/v; both obtained from Kemika, Zagreb, Croatia) followed by centrifugation. The final lymphocyte suspension was dropped onto clean microscope slides.

HEK293 cells = test: Cell membrane integrity (LDH release), HEK293; type: cell-based, human; conditions: HEK293, 24 h; CBD 2 μM, CIT 0.05 μM, alone or combined
Protocol: Cell membrane integrity was determined after exposure to compounds’ concentrations corresponding to LOAEL concentrations in 24 h by measuring the release of the intracellular lactate dehydrogenase (LDH) and the procedure followed a previously described protocol using The CytoTox-ONE™ Homogeneous Membrane Integrity Assay (Promega, Madison, WI, USA). In short, the cells were seeded in black 96-well plates at a density of 10,000 cells/well one day before the experiment and treated with selected LOAEL concentrations. Triton X-100 at a final concentration of 0.18% (v/v) (stock of 9% in water) was used as a positive control to determine the maximal LDH release. Data were taken from at least two independent experiments (each treatment performed in duplicate or triplicate) and plotted as a percentage of LDH release compared to the determined maximal LDH release, according to the manufacturer’s calculation protocol.

[2] = tested on: human peripheral blood lymphocytes; test: Alkaline comet assay; type: cell-based; conditions: 24 h, CIT 30 µM; for tail intensity, mean value ± SE: CBD 1 µM, bleomycin 1.25 µg/mL
Protocol: as §1, §2, §3, §4, §5

| SMILES | Distribution of BNMN Cells with 1 MN [1] | Distribution of BNMN Cells with 2 MNi [1] | Distribution of BNMN Cells with 3 MNi [1] | Distribution of BNNB Cells with 1 NB [1] | Distribution of BNNB Cells with 2 NBs [1] | Micronuclei (MNi) and BNMN Cells: Total (BNNB)6000 [1] | Micronuclei (MNi) and BNMN Cells: Total (MNi)6000 [1] | Nuclear Buds (NBs) and BNNB Cells: Total (BNNB)6000 [1] | Nuclear Buds (NBs) and BNNB Cells: Total (NBs)6000 [1] | Nucleoplasmic Bridges (NPBs) and BNNPB Cells: Total (BNNPB)6000 [1] | Nucleoplasmic Bridges (NPBs) and BNNPB Cells: Total (NPBs)6000 [1] | Cell Death: Total (Apoptosis)6000 [1] | Cell Death: Total (Necrosis)6000 [1] | Micronuclei (MNi) and BNMN Cells: Mean (BNMN)1000 ± SD [1] | Micronuclei (MNi) and BNMN Cells: Mean (MNi)1000 ± SD [1] | Nuclear Buds (NBs) and BNNB Cells: Mean (BNNB)1000 ± SD [1] | Nuclear Buds (NBs) and BNNB Cells: Mean (NBs)1000 ± SD [1] | Nucleoplasmic Bridges (NPBs) and BNNPB Cells: Mean (BNNPB)1000 ± SD [1] | Nucleoplasmic Bridges (NPBs) and BNNPB Cells: Mean (NPBs)1000 ± SD [1] | Cell Death: Mean (Apoptosis)1000 ± SD [1] | further results |
| --- | --- | --- | --- | --- | --- | --- | --- | --- | --- | --- | --- | --- | --- | --- | --- | --- | --- | --- | --- | --- | --- |
| CC1=C2C(=CO[C@H](C)[C@H]2C)C(O)=C(C(=O)O)C1=O [CIT, citrinin] | 66 ^a,b,d,e | 5 | 0 | 69 ^a,b,d,e | 5 | 71^a,b,d,e | 74 ^a,b,d,e | 74 ^a,b,d,e | 79 ^a,b,d,e | 4 | 4 | 50 ^a,b,d,e | 45 ^a,b,d,e | 11.7 ± 1.4 ^a,b,d,e | 12.3 ± 1.6 ^a,b,d,e | 12.3 ± 3.1 ^a,b,d,e | 13.2 ± 3.7 ^a,b,d,e | 0.7 ± 0.5 | 0.7 ± 0.5 | 8.3 ± 1.6 ^a,b,d,e | Cell Death: Mean (Necrosis)1000 ± SD [1]: 7.5 ± 0.8 ^a,b,d,e; cell membrane integrity (LDH release) (HEK293 cells): not significantly compromised; group median value of tail intensity [2]: below 10%; tail intensity, mean value ± SE [2]: 6.56 ± 0.37% |
| C=C(C)[C@@H]1CCC(C)=C[C@H]1c1c(O)cc(CCCCC)cc1O [CBD, cannabidiol] | 17 | 0 | 0 | 25 ^a | 0 | 17 | 17 | 25 ^a | 25 ^a | 0 | 0 | 19 ^a | 9 | 2.8 ± 0.8 | 2.8 ± 0.8 | 4.2 ± 0.4 ^a | 4.2 ± 0.4 ^a | 0 | 0 | 3.2 ± 0.8 ^a,b | Cell Death: Mean (Necrosis)1000 ± SD [1]: 1.5 ± 1.0; cell membrane integrity (LDH release) (HEK293 cells): not significantly compromised; tail intensity, mean value ± SE [2]: 1.07 ± 0.08% |
